Test results as given in patent US11311512B2, “Lymph directing prodrugs” (priority 2014, dated 2022).

Columns and labels:
[1] = for Transport of total TST derivatives in lymph (% of dose): anaesthetised, mesenteric lymph-duct cannulated female SD rats, intraduodenal infusion 0-2 h, cumulative over 8 h; for Fold increase (compared with control group dosed with TU): lymphatic transport of total TST derivatives, female SD rats, intraduodenal infusion
Protocol: Lipid formulations containing the compound of interest were then administered to the animals, the lymph collected and drug concentrations in the lymph subsequently quantified.
Lipid-based formulations of the compounds of the invention or control compounds were prepared as previously described (Trevaskis, N. L. et al., Pharmaceutical Research, 2005, 22(11), 1863-1870). Briefly, approximately 2 mg of the compound (1 mg in the case of Compound 35 and Compound 1), 40 mg oleic acid and 25 mg Tween 80 were mixed in a glass vial until equilibrated (gentle heat (below 50° C.) may be applied for a short period).
[…] This was to eliminate the potential for the relatively high and variable levels of endogenous testosterone in male rats interfering with the quantification of exogenously dosed testosterone. Rats (240-320 g) were maintained on a standard diet and fasted overnight with free access to water prior to experiments. Anaesthetised rats were placed on a heated pad at 37° C. and cannulas were inserted into the duodenum (for formulation administration and rehydration), mesenteric lymph duct (for lymph collection) and carotid artery (for blood collection) as previously described (Edwards et al. Advanced Drug Delivery Reviews 2001, 50(1), 45-60). Post-surgery, rats were re-hydrated for 0.5 h via intraduodenal infusion of normal saline at 2.8 mL/h. The lipid formulations were infused into the duodenum at 2.8 mL/h for 2 h, after which the infusion was changed to 2.8 mL/h normal saline for the remainder of the experiment. Lymph was continuously collected for 6 to 8 h into pre-weighed Eppendorf tubes containing 10 μL of 1,000 IU/mL heparin. The collection tubes were changed hourly and lymph flow was measured gravimetrically. Aliquots of hourly lymph samples were stored at −80° C. prior to assay.
Drug concentration in lymph is expressed as total drug and includes free drug and drug associated with different glycerides. This is assayed by hydrolysis of lymph (to liberate drug from any re-esterified glycerides) prior to assessment of free drug.
FIG. 1 illustrates the cumulative lymphatic transport of total testosterone related derivatives (% of administered dose) versus time in anaesthetised mesenteric lymph duct cannulated female SD rats following intraduodenal infusion of formulations from 0 to 2 h. Each Formulation contained 2 mg of the exemplified compound or the control, testosterone undecanoate (TU), dispersed in 40 mg oleic acid, 25 mg Tween 80 and 5.6 ml PBS.

[2] = Pharmacokinetic study in rats, testosterone plasma concentrations after oral gavage; settings: for AUC0-24 h fold increase compared with TU group / Tmax / AUC0-24 h / Cmax: testosterone in plasma, oral gavage; for AUC0-24 h fold increase compared with TU group / systemic exposure of parent testosterone (dose-normalised plasma AUC0-24h), fold greater than after Compound 41 or Compound 10: SD female rats; for AUC0-24 h fold increase compared with TU group: dose-normalized; for Tmax / AUC0-24 h / Cmax: conscious carotid artery cannulated SD female rats; for AUC0-24 h / Cmax: normalized to 2 mg/kg equivalent testosterone dose; for systemic exposure of parent testosterone (dose-normalised plasma AUC0-24h), fold greater than after Compound 41 or Compound 10: oral administration
Protocol: In order to assess the oral bioavailability of the compounds of the invention, pharmacokinetic studies were conducted in rats and dogs. […] The rats were then allowed to regain consciousness and fasted overnight prior to the commencement of experiments with free access to water. […] The oral formulation of Compound 2 contained 3 mg of the compound, 20 mg oleic acid and 12.5 mg Tween 80 dispersed in 1 mL PBS. Blood samples were collected from the carotid artery cannula from 5 min prior to administration up to 24 h post-dosing and centrifuged at 5000 rpm for 5 min to separate plasma. […] Plasma samples were stored at −80° C. prior to assay by HPLC-MS-MS. In this case samples were assayed for free drug (i.e. non-glyceride associated drug) and were not hydrolysed prior to assay (as was the case with the lymph samples).
FIG. 12 illustrates dose-normalized testosterone plasma concentrations following oral gavage of formulations to conscious, carotid artery cannulated female SD rats. Formulations contained 1 mg of TU, or 2 mg of compounds of the invention containing testosterone dispersed in 40 mg oleic acid, 25 mg Tween 80 and 2 ml PBS. Doses are normalized to a 2 mg/kg equivalent dose of testosterone. Data are shown as mean±SEM for all groups (n=4 or 3 for each group). The embedded figure is the plot of the dose-normalized plasma AUC0-24h (nmol×h/L) of testosterone in the form of a bar graph.

[3] = system: porcine pancreatic lipase; assay: In vitro hydrolysis by porcine pancreatic lipase; assay type: in vitro ADME; settings: 37° C., simulated intestinal micellar solution pH 6.5, up to 180 min
Protocol: To provide for higher throughput of experiments, unless otherwise stated, in vitro hydrolysis of TST related compounds was performed via incubation with porcine pancreatic lipase. This provides a more reproducible source of pancreatic enzymes, facilitates enhanced experimental throughput and is also a greater challenge than collected rat enzymes (since enzyme activity in rat intestinal fluid is low). Briefly, pancreatic lipase solution was prepared prior to the hydrolysis experiment by dispersion of 1 g porcine pancreatin in 5 ml of lipolysis buffer and 16.9 μl of 5M NaOH. The suspension was mixed well and centrifuged at 3500 rpm for 15 minutes at 5° C. to provide a supernatant. An amount of 1000 ml of lipolysis buffer was prepared with 0.474 g of tris-maleate (2 mM), 0.206 g of CaCl2.H2O (1.4 mM) and 8.775 g of NaCl (150 mM) adjusted with NaOH to pH 6.5. To assess the potential for prodrug hydrolysis in the intestine, 20 μl of prodrug solution (1 mg/ml dissolved in acetonitrile), 900 μl of simulated intestinal micellar solution [prepared with 0.783 g of NaTDC (3 mM) and 0.291 g of phosphatidyl choline (0.75 mM) in 500 ml lipolysis buffer] and 100 μl of enzyme solution were incubated at 37° C. 20 μl samples of the incubation solution were taken at 0, 5, 10, 15, 30, 60, 90, 120 and 180 minutes post incubation and added to 180 μl of ACN to stop lipolysis. The mixture was vortexed and centrifuged at 5000 rpm for 5 minutes to precipitate proteins prior to analysis. The supernatant was analysed by HPLC-MS for residual compound concentrations, and the potential products of compound hydrolysis were analysed.
On incubation with digestive enzymes the monoglycerides forms of the prodrugs are formed very rapidly. The stability in simulated intestinal conditions is therefore better assessed by the stability of the monoglycerides form that is generated by the initial digestion process. The monoglycerides form must remain intact to be absorbed and re-esterified in the enterocyte prior to entry into the lymphatics. […] This is consistent with the increase in lymphatic transport of Compound 18 when compared to Compound 10, and the high extent of lymphatic transport of Compound 16 in FIG. 4.

[4] = Pharmacokinetic study in greyhound dogs, testosterone plasma concentrations after oral administration; assay type: in vivo; settings: for Cmax / Tmax / AUC0-24 h: oral capsules; for Cmax / AUC0-24 h: normalized to 2 mg/kg equivalent testosterone dose
Protocol: For the dog studies, female greyhound dogs were held in a large animal research facility for at least 5 days prior to the commencement of studies. The dogs were allowed to acclimatise for at least 4 days prior to commencing the study. The dogs were fasted for 12 h up to 30 min prior to drug administration. For the fed state studies (n=4 for TU or Compound 13), dogs received 680 g of standard commercial dog food containing 5% fat min prior to drug administration. In the fasted study (n=1 for Compound 13), the dog remained fasted until after 4 h post-dose. Water was available ad libitum throughout the study for all dogs. On the study day, a 20 gauge intravenous catheter was inserted into a cephalic vein to allow blood sampling. The dogs were free to move around (not restrained) after cannulation. For the fed state studies, Andriol Testocaps (the commercial TU product) or Compound 13 was given to the dogs. Andriol Testocaps were supplied by Merck Sharp & Dohme (Australia) Pty Limited and were formulated as soft gelatin capsule containing a 12.0% (w/w) solution of TU in lauroglycol FCC/castor oil [40:60% (w/w)] with the individual capsule composition being 40 mg of TU, lauroglycol FCC, castor oil, gelatin, glycerol, and sunset yellow (E110). Compound 13 was prepared in a long-chain lipid based self-emulsifying drug delivery system (SEDDS) that consisted of 30.5% w/w soybean oil, 30.5% w/w Maisine 35-1, 31.6% w/w Cremophor EL and 7.4% w/w ethanol. Formulations were filled into hard gelatin capsules. Two capsules of Andriol Testocaps containing 80 mg TU or two capsules of Compound 13 containing a total dose of 90 mg Compound 13 dissolved in 2 g of the SEDDS formulation were administrated to the fed greyhound dog by placing the capsules as far posterior to the pharynx as possible, closing the mouth and rubbing the throat to stimulate swallowing. Subsequently 50 mL of water was administered orally via a syringe. Two capsules of Compound 13 formulation were also administrated to the fasted dogs for fasted state studies. After oral administration, blood samples (approx. 3 mL each) were taken via the cephalic vein cannula from 5 min prior to administration up to 10 hours post-dosing. The patency of the catheters was maintained by flushing with a small volume of heparinised saline (1-2 IU/mL) after each blood sample was withdrawn. Blood samples at 24 h were taken by venepuncture. Plasma was separated by centrifugation and aliquots of each plasma sample were transferred into eppendorf tubes and store at −80° C. prior to analysis by LC-MS-MS.

[5] = greyhound dog, fasted state (n = 1)

Row | SMILES | Transport of total TST derivatives in lymph (% of dose) [1] | Fold increase (compared with control group dosed with TU) [1] [fold] | AUC0-24 h fold increase compared with TU group [2] [fold] | Tmax [2] [h] | AUC0-24 h [2] [µM·h] | Cmax [2] [nM] | stability of the monoglyceride form during in vitro incubation with porcine pancreatic lipase [3] | systemic exposure of parent testosterone (dose-normalised plasma AUC0-24h), fold greater than after Compound 41 or Compound 10 [2] [fold] | AUC0-24 h fold increase compared with TU group ([4]; greyhound dog, fasted state (n = 1), dose-normalized) [fold] | Cmax ([4]; conscious greyhound dogs, fed state, TU as Andriol Testocaps, Compound 13 in SEDDS) [nM] | Tmax [4, 5] [h] | AUC0-24 h [4, 5] [µM·h] | Cmax [4, 5] [nM] | Tmax ([4]; greyhound dogs, fed state) [h] | AUC0-24 h ([4]; greyhound dogs, fed state) [µM·h]
1 | CCCCCCCCCCCCCCCC(=O)OCC(COC(=O)CCCCCCCCCCCCCCC)OC(=O)C(C)CCCCCCCC(=O)O[C@H]1CC[C@H]2[C@@H]3CCC4=CC(=O)CC[C@]4(C)[C@H]3CC[C@]12C (stereo partly drawn) [Compound 16] | 23.2 ± 2.3 % of dose | 12.3 | 15.8 | 1.3 ± 0.1 | 0.1076 ± 0.014 | 77 ± 14.2 | significantly stabilised the monoglyceride intermediates |  |  |  |  |  |  |  | 
2 | CCCCCCCCCCCCCCCC(=O)OCC(COC(=O)CCCCCCCCCCCCCCC)OC(=O)CC(C)CC(=O)Oc1cc(C)cc(C)c1C(C)(C)CC(=O)O[C@H]1CC[C@H]2[C@@H]3CCC4=CC(=O)CC[C@]4(C)[C@H]3CC[C@]12C (stereo partly drawn) [Compound 25] |  |  | 58.5 | 0.9 ± 0.1 | 0.3992 ± 0.0432 | 419 ± 63.3 | remarkably stable |  |  |  |  |  |  |  | 
3 | CCCCCCCCCCCCCCCC(=O)OCC(COC(=O)CCCCCCCCCCCCCCC)OC(=O)CC(C)CCCCCCC(=O)Oc1cc(C)cc(C)c1C(C)(C)CC(=O)O[C@H]1CC[C@H]2[C@@H]3CCC4=CC(=O)CC[C@]4(C)[C@H]3CC[C@]12C (stereo partly drawn) [Compound 27] |  |  | 106.4 | 1.5 ± 0.5 | 0.7238 ± 0.0905 | 428 ± 97.8 | remarkably stable |  |  |  |  |  |  |  | 
4 | CCCCCCCCCCCCCCCC(=O)OCC(COC(=O)CCCCCCCCCCCCCCC)OC(=O)CCCCC(=O)OCO[C@H]1CC[C@H]2[C@@H]3CCC4=CC(=O)CC[C@]4(C)[C@H]3CC[C@]12C [Compound 21, 1,3-Bis(palmitoyloxy)propan-2-yl (((8R,9S,10R,13S,14S,17S)-10,13-dimethyl-3-oxo-2,3,6,7-8,9,10,11,12,13,14-15,16,17-tetradecahydro-1H-cyclopenta[a]phenanthren-17-yl)oxy)methyl adipate] |  |  | 44.0 | 0.7 ± 0.2 | 0.2994 ± 0.1001 | 232 ± 63.2 | lower than that of Compound 11 |  |  |  |  |  |  |  | 
5 | CCCCCCCCCCCCCCCC(=O)OCC(COC(=O)CCCCCCCCCCCCCCC)OC(=O)CCCCCCCCC(=O)O[C@H]1CC[C@H]2[C@@H]3CCC4=CC(=O)CC[C@]4(C)[C@H]3CC[C@]12C [Compound 13] |  |  |  | 0.9 ± 0.1 | 0.1871 ± 0.0358 | 197 ± 53.4 | not highly stable | 10 | 7.3 | 455 ± 9.4 | 2.5 | 1.0268 | 386 | 1.8 ± 0.3 | 1.1166 ± 0.0324
6 | CCCCCCCCCCCCCCCC(=O)OCC(COC(=O)CCCCCCCCCCCCCCC)OC(=O)CCCCC(=O)O[C@H]1CC[C@H]2[C@@H]3CCC4=CC(=O)CC[C@]4(C)[C@H]3CC[C@]12C [Compound 11] | 17.0 ± 1.6 % of dose | 9.0 | 12.4 | 1.3 ± 0.1 | 0.0842 ± 0.0093 | 69.9 ± 8.2 | not highly stable | 10 |  |  |  |  |  |  | 
